Measurements from patent publication US20190112598A1, “Methods and Systems of Cell-Free Enzyme Discovery and Optimization” (President and Fellows of Harvard College, priority 2016, published 2019).

Biological target: T1, AcuR (Cereibacter sphaeroides, UniProt Q3J6K8)
T1 construct: made in house; host or cells: cell-free expression reaction (NEB P/N E6800 components A and B) from T7-promoter linear dsDNA, made in the assay well itself
T1 sequence (Q3J6K8 1-219): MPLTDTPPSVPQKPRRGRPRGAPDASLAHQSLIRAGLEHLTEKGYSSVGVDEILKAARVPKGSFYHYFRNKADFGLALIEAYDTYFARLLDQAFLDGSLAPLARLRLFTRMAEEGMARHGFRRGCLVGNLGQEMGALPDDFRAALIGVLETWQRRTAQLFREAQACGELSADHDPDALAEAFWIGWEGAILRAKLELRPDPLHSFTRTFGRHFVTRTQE
Assay: Cell-free observation of acrylate: AcuR sensor with GFP reporter in a cell-free expression reaction
Type: biochemical
Settings: 0.1 mM sodium acrylate; 37° C.; 395 nm excitation; measured every two minutes for 4 hours; sample without acrylate rose to 260; FIG. 1
Source text: DNA encoded biological acrylate sensor was used to detect acrylate. AcuR is a transcription factor whose activity is dependent on the concentration of acrylate. A linear dsDNA encoding the acrylate sensor AcuR is combined with a reporter circular plasmid which contained a GFP protein controlled by a promoter regulated by AcuR. Thus, GFP fluorescence is related to the amount of acrylate in the sample.
In order to obtain an adequate signal-to-noise ratio (SNR), a T7 promoter was used to drive the expression of the sensor to achieve high expression of the sensor protein and ensure outnumbering of the number of reporter promoters, and well controlled expression. Additionally, an E. coli RNAP promoter was used to drive expression on the reporter, as it reduces the level of background signal, and provides with a more accurate control by AcuR.
Linear DNA amplification: Linear dsDNA containing AcuR was prepared by PCR amplification using primers which contain a T7 promoter, and ribosome binding site (RBS). […]
The samples were incubated at 37° C., and the fluorescence signal (395 nm excitation, 470 nm […]) of the sample was measured every two minutes for 4 hours.

C=CC(=O)O [acrylate]
increase of fluorescence (GFP reporter signal): 750 arbitrary units
